In the supplement of paper PMC11208160:

Test: recombinant UMI read abundance after kanamycin selection (control-corrected) (log10(CPM+1)); higher = more efficient recombination; extreme values may be limits of the assay; sequences stand for … in AGTGCAGAGAAAATCGGCCAGTTTTCTCTGCCTGCAGTCCGCATGCCGTGGGACCCCTTGGGTTCTAACCTGTTGCCTAGATTTATGCAGCGGACTGCCTTTCTCCCAAAGTGATAAACCGG…AGGTTGGTTTCACT; site = the 11-nt donor
How it was run: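 Sequenced counts of recombinant UMIs were turned into CPM, averaged across replicates and scaled with control-derived factors. The reported figure is log10(CPM+1). Those UMIs, each 12 nt long, tagged donor and donor-binding-loop pairs on a plasmid with a promoterless kanamycin gene, screened as a pool in Escherichia coli with IPTG (0.07 mM) plus kanamycin or without selection.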
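Note: IS621 bridge recombinase in Escherichia coli cells against a fixed T5 target plasmid.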

Sequence	recombinant UMI read abundance (log10)
GGTACATCATGGACCGGTTTTCCCGGTAATCCGTATTTGAG (site GGTACATCTCT)	0.66
GGTACGACATGGACCGGTTTTCCCGGTAATCCGTATTTGTT (site GGTACGACTAA)	0.444
GGTACGACATGGACCGGTTTTCCCGGTAATCCGTATTTGTT (site GGTACGCCTAA)	0.0177
GGTACGACATGGACCGGTTTTCCCGGTAATCCGTATTTGTT (site GGTACGGCTAA)	0.0185
GGTACGACATGGACCGGTTTTCCCGGTAATCCGTATTTGTT (site GGTACGTCTAA)	0.0179
GGTACGTCATGGACCGGTTTTCCCGGTAATCCGTATTTGTC (site GGTACGTCTAA)	0.0158
GGTACGTCATGGACCGGTTTTCCCGGTAATCCGTATTTGTC (site GGTACGTCTCA)	0.0113
GGTACGTCATGGACCGGTTTTCCCGGTAATCCGTATTTGTC (site GGTACGTCTGA)	0.0103
GGTACGTCATGGACCGGTTTTCCCGGTAATCCGTATTTGTC (site GGTACGTCTTA)	0.0125
GGTATGCCATGGACCGGTTTTCCCGGTAATCCGTATTTGAC (site GGTATGCCTGT)	0
GGTATTTCATGGACCGGTTTTCCCGGTAATCCGTATTTGAA (site GGTATTTCTTT)	0
GGTCAAGCATGGACCGGTTTTCCCGGTAATCCGTATTTGGC (site GGTCAAGCTGC)	1.47
GGTCCATCATGGACCGGTTTTCCCGGTAATCCGTATTTGTA (site GGTCCAACTTA)	0.016
GGTCCATCATGGACCGGTTTTCCCGGTAATCCGTATTTGTA (site GGTCCACCTTA)	0.0104
GGTCCATCATGGACCGGTTTTCCCGGTAATCCGTATTTGTA (site GGTCCAGCTTA)	0.00308
GGTCCATCATGGACCGGTTTTCCCGGTAATCCGTATTTGTA (site GGTCCATCTTA)	0.459
GGTCCCACATGGACCGGTTTTCCCGGTAATCCGTATTTGTA (site GGTCCAACTTA)	0
GGTCCCACATGGACCGGTTTTCCCGGTAATCCGTATTTGTA (site GGTCCCACTTA)	0.0202
GGTCCCACATGGACCGGTTTTCCCGGTAATCCGTATTTGTA (site GGTCCGACTTA)	0.0061
GGTCCCACATGGACCGGTTTTCCCGGTAATCCGTATTTGTA (site GGTCCTACTTA)	0.0287
GGTCGATCATGGACCGGTTTTCCCGGTAATCCGTATTTGCG (site GGTCGATCTCG)	0.598
GGTCGTCCATGGACCGGTTTTCCCGGTAATCCGTATTTGTA (site GGTCGTCCTTA)	0.0245
GGTCTAACATGGACCGGTTTTCCCGGTAATCCGTATTTGTA (site GGTCAAACTTA)	0.0026
GGTCTAACATGGACCGGTTTTCCCGGTAATCCGTATTTGTA (site GGTCCAACTTA)	0
GGTCTAACATGGACCGGTTTTCCCGGTAATCCGTATTTGTA (site GGTCGAACTTA)	0.0128

Sequence	recombinant UMI read abundance (log10)
GGTCTAACATGGACCGGTTTTCCCGGTAATCCGTATTTGTA (site GGTCTAACTTA)	0.607
GGTCTACCATGGACCGGTTTTCCCGGTAATCCGTATTTGCA (site GGTCTACCTTG)	0
GGTGCTGCATGGACCGGTTTTCCCGGTAATCCGTATTTGTG (site GGTGCTGCTCA)	0.0597
GGTGGTGCATGGACCGGTTTTCCCGGTAATCCGTATTTGAC (site GGTGGTGCTGT)	2.18
GGTGTGGCATGGACCGGTTTTCCCGGTAATCCGTATTTGGT (site GGAGTGGCTAC)	0.128
GGTGTGGCATGGACCGGTTTTCCCGGTAATCCGTATTTGGT (site GGCGTGGCTAC)	0.0168
GGTGTGGCATGGACCGGTTTTCCCGGTAATCCGTATTTGGT (site GGGGTGGCTAC)	0.145
GGTGTGGCATGGACCGGTTTTCCCGGTAATCCGTATTTGGT (site GGTGTGGCTAC)	0.636
GGTGTTACATGGACCGGTTTTCCCGGTAATCCGTATTTGTT (site GGTGTTACTAA)	0.51
GGTGTTCCATGGACCGGTTTTCCCGGTAATCCGTATTTGGC (site GGTGTTCCTGC)	0
GGTGTTCCATGGACCGGTTTTCCCGGTAATCCGTATTTGTT (site GGTGTTCCTAA)	0.00351
GGTTCCGCATGGACCGGTTTTCCCGGTAATCCGTATTTGCG (site GGTTCCGCTCG)	0
GGTTCGTCATGGACCGGTTTTCCCGGTAATCCGTATTTGTT (site GGTACGTCTAA)	0.0147
GGTTCGTCATGGACCGGTTTTCCCGGTAATCCGTATTTGTT (site GGTCCGTCTAA)	0.0123
GGTTCGTCATGGACCGGTTTTCCCGGTAATCCGTATTTGTT (site GGTGCGTCTAA)	0.00284
GGTTCGTCATGGACCGGTTTTCCCGGTAATCCGTATTTGTT (site GGTTCGTCTAA)	0.351
GGTTTCACATGGACCGGTTTTCCCGGTAATCCGTATTTGTA (site GGTTTCACTTA)	0.519
GTAAATCCATGGACCGGTTTTCCCGGTAATCCGTATTTGGG (site GTAAATCCTCC)	0.325
GTAATAACATGGACCGGTTTTCCCGGTAATCCGTATTTGGG (site GTAATAACTCC)	0.656
GTAATCTCATGGACCGGTTTTCCCGGTAATCCGTATTTGTA (site GTAATCTCTTA)	2.83
GTACATGCATGGACCGGTTTTCCCGGTAATCCGTATTTGGT (site GTACATGCTAC)	1.43
GTACATGCATGGACCGGTTTTCCCGGTAATCCGTATTTGGT (site GTCCATGCTAC)	0.0463
GTACATGCATGGACCGGTTTTCCCGGTAATCCGTATTTGGT (site GTGCATGCTAC)	0.0209
GTACATGCATGGACCGGTTTTCCCGGTAATCCGTATTTGGT (site GTTCATGCTAC)	0.184
GTACATTCATGGACCGGTTTTCCCGGTAATCCGTATTTGTG (site GTACATTCTCA)	2.5

Sequence	recombinant UMI read abundance (log10)
GTACGTACATGGACCGGTTTTCCCGGTAATCCGTATTTGAC (site GTAAGTACTGT)	0.00784
GTACGTACATGGACCGGTTTTCCCGGTAATCCGTATTTGAC (site GTACGTACTGT)	2.51
GTACGTACATGGACCGGTTTTCCCGGTAATCCGTATTTGAC (site GTAGGTACTGT)	0.0679
GTACGTACATGGACCGGTTTTCCCGGTAATCCGTATTTGAC (site GTATGTACTGT)	0.00913
GTACTCGCATGGACCGGTTTTCCCGGTAATCCGTATTTGCG (site GTAATCGCTCG)	0.0162
GTACTCGCATGGACCGGTTTTCCCGGTAATCCGTATTTGCG (site GTACTCGCTCG)	0.0142
GTACTCGCATGGACCGGTTTTCCCGGTAATCCGTATTTGCG (site GTAGTCGCTCG)	0.00832
GTACTCGCATGGACCGGTTTTCCCGGTAATCCGTATTTGCG (site GTATTCGCTCG)	0.00972
GTAGACGCATGGACCGGTTTTCCCGGTAATCCGTATTTGCG (site GTAGACGCTCG)	2.33
GTAGACGCATGGACCGGTTTTCCCGGTAATCCGTATTTGCG (site GTAGCCGCTCG)	0.0374
GTAGACGCATGGACCGGTTTTCCCGGTAATCCGTATTTGCG (site GTAGGCGCTCG)	1.39
GTAGACGCATGGACCGGTTTTCCCGGTAATCCGTATTTGCG (site GTAGTCGCTCG)	0.182
GTAGATTCATGGACCGGTTTTCCCGGTAATCCGTATTTGTT (site GAAGATTCTAA)	0.559
GTAGATTCATGGACCGGTTTTCCCGGTAATCCGTATTTGTT (site GCAGATTCTAA)	1.63
GTAGATTCATGGACCGGTTTTCCCGGTAATCCGTATTTGTT (site GGAGATTCTAA)	0.98
GTAGATTCATGGACCGGTTTTCCCGGTAATCCGTATTTGTT (site GTAGATTCTAA)	3.02
GTAGCTGCATGGACCGGTTTTCCCGGTAATCCGTATTTGTG (site ATAGCTGCTCA)	0.436
GTAGCTGCATGGACCGGTTTTCCCGGTAATCCGTATTTGTG (site CTAGCTGCTCA)	0.54
GTAGCTGCATGGACCGGTTTTCCCGGTAATCCGTATTTGTG (site GTAGCTGCTCA)	1.06
GTAGCTGCATGGACCGGTTTTCCCGGTAATCCGTATTTGTG (site TTAGCTGCTCA)	0.0482
GTAGGATCATGGACCGGTTTTCCCGGTAATCCGTATTTGAC (site CTAGTATCTGT)	0.851
GTAGGATCATGGACCGGTTTTCCCGGTAATCCGTATTTGAC (site GTAGGATCTGT)	3.19
GTAGGCGCATGGACCGGTTTTCCCGGTAATCCGTATTTGAC (site GTAGGCGCTGT)	1.9
GTAGGCGCATGGACCGGTTTTCCCGGTAATCCGTATTTGCG (site GTAGACGCTCG)	2.78
GTAGGCGCATGGACCGGTTTTCCCGGTAATCCGTATTTGCG (site GTAGCCGCTCG)	0
